According to article PMC9182007, “Statistical Methods in the Study of Protein Binding and Its Relationship to Drug Bioavailability in Breast Milk” (Molecules, 2022):
Read-outs that look alike come from different tables or passages of the source.

Tests used:
[1] = source not stated, cited from earlier work
[2] = ref DrugBank [7], cited from earlier work
[3] = RP TLC on non-impregnated control plates; format: physicochemical; settings: for CRP (Rf, control RP plate): Table S4, non-impregnated RP plate, acetonitrile/acetate buffer pH 7.4/methanol 60:20:20
[4] = biological target: T1, bovine serum albumin (BSA) (Bos taurus, UniProt P02769); test: NP TLC on plates impregnated with bovine serum albumin; format: binding; settings: for NP (Rf, BSA-impregnated NP plate): Table S3, NP plate impregnated with 2 mg/mL BSA, pH 7.4 mobile phase
T1 construct: purchased Sigma Aldrich
T1 sequence (P02769 25-607): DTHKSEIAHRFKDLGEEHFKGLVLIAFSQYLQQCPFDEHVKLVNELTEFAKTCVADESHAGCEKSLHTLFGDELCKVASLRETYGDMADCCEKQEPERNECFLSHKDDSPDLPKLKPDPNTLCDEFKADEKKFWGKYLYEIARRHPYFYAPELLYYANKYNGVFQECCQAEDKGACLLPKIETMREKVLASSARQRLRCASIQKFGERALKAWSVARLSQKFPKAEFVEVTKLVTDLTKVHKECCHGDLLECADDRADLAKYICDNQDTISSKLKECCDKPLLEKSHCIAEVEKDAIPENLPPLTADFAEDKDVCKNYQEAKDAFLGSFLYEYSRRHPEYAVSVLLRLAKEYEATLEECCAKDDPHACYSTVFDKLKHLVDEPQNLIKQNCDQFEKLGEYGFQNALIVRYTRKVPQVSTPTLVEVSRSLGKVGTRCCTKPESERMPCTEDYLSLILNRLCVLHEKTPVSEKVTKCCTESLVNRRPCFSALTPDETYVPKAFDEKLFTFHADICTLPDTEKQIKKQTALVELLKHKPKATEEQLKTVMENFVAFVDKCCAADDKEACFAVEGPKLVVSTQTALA
Excerpt: (§1) Chromatographic descriptors were obtained in experiments, thin layer chromatography in normal (NP TLC) and reversed mode (RP TLC). The stationary phase was modified with bovine serum albumin (BSA). TLC was the source of retention factor (Rf) values, denoted in statistical models as NP and RP.
(§2) For TLC chromatography, glass plates 20 × 20 cm from Merck, covered with silica gel with the addition of a fluorescent indicator, were used. Normal phase (NP) plates were used with standard Merck TLC Silica gel 60 F254 plates, while in reverse phase (RP) silanized plates RP-2: Merck TLC Silica gel 60 RP-2 F254 were used.
(§3) The stationary phase of the plates, both NP and RP, was modified with an aqueous solution of bovine serum albumin purchased from Sigma Aldrich (bovine serum albumin, lyophilized powder).
(§4) The impregnation of the plates was carried out with a 2 mg/mL solution applied to the surface using a Desaga SG 1 hand sprayer; the plates were then air dried. […] Normal and reversed phase thin layer chromatography (NP TLC and RP TLC respectively) was performed using silica-gel-coated glass plates. Half of them were covered with 2 mg/mL bovine serum albumin solution and half remained pure.
(§5) The mobility of the compounds was also determined on the plates with no protein as a modifier. […] The acetate buffer (20 mM) was prepared by dissolving 1.54 g of ammonium acetate in 1 L of distilled water. The pH was then adjusted with a concentrated ammonia solution using a pH meter. The plates were developed in standard, vertical chromatographic chambers, each time using 100 mL of the mobile phase, after the chamber was previously saturated with solvent vapors for approximately 1 h.
(§6) The unfolded-protein-impregnated plates and the control plates were scanned with a Desaga CD 60 densitometer. The values of the delay factor (Rf) were collected, i.e., the ratio of the distance traveled by the substance to be analyzed to the distance traveled through the front of the mobile phase. […] The experiment was repeated (for both BSA-coated and control plates) and the Rf values pooled are the mean of both series of experiments.

[5] = NP TLC on non-impregnated control plates; format: physicochemical; settings: for CNP (Rf, control NP plate): Table S3, non-impregnated NP plate, acetonitrile/acetate buffer pH 7.4/methanol 60:20:20
Description: as §2
Normal and reversed phase thin layer chromatography (NP TLC and RP TLC respectively) was performed using silica-gel-coated glass plates. Half of them were covered with 2 mg/mL bovine serum albumin solution and half remained pure.
as §5, §6

[6] = biological target: T2, human serum albumin (HSA) (Homo sapiens, UniProt P02768)
T2 sequence (P02768 25-609): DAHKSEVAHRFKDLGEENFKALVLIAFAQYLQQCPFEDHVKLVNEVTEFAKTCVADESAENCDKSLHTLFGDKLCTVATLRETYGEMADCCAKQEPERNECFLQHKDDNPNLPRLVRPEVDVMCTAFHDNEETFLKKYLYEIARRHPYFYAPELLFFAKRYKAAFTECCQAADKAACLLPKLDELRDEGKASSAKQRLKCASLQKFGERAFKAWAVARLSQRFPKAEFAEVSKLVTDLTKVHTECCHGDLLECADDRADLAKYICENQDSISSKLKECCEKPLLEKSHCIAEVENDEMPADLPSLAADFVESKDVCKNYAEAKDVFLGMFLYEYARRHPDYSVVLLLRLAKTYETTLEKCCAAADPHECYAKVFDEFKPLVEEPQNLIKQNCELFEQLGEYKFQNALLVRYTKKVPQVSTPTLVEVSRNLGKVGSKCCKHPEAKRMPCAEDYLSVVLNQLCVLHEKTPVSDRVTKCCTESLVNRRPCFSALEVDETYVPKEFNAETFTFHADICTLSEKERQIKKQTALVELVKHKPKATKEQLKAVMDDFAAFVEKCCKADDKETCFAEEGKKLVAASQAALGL
Description: (§7) High performance liquid chromatography was performed using immobilized human serum albumin column (HPLCHSA) and immobilized artificial membrane (HPLCIAM). HPLC was the source of the log k values (logarithm of retention factor), log kHSA and log kIAM.
(§8) High performance liquid chromatography was performed using a chromatography column with immobilized human serum albumin. The assay was performed on a Perkin Elmer Series 200 instrument connected to a UV-VIS spectrometer as detector. The analytical wavelength was the same for all compounds at 210 nm. […] The acetate buffer was prepared by dissolving 0.77 g of ammonium acetate in 1 L of distilled water. The pH was then adjusted with a concentrated ammonia solution using a pH meter.
(§9) The phase flow through the system was set to 0.9 mL/min as recommended by the column manufacturer. The solutions were delivered to the column using an autosampler syringe, the injection size was 10 µL. Since the column could not be thermostated, the room was kept at a constant temperature of 25 degrees Celsius.
(§10) Chromatographic data (retention coefficient, k, and derivative, log k) were obtained with TotalChrom software connected to an HPLC instrument. […] The experiment was then repeated and the collected retention rates were the mean values of both series.

[7] = biological target: T1, bovine serum albumin (BSA); test: RP TLC on plates impregnated with bovine serum albumin; format: binding; settings: for RP (Rf, BSA-impregnated RP plate): Table S4, RP plate impregnated with 2 mg/mL BSA, pH 7.4 mobile phase
Excerpt: as §1, §2, §3, §4, §5, §6

[8] = Milk-to-plasma (M/P) drug concentration ratio obtained in vivo, from literature; parameters: species or system human; settings: Table S1, scale of drug penetration into milk 1-4
[9] = biological target: T2, human serum albumin (HSA); test: in vitro; settings: immobilized hsa column, pH 7.4
Description: as §7, §8, §9, §10

[10] = HPLC on immobilized artificial membrane column (HPLCIAM); format: physicochemical; settings: for log k IAM: Table S5, IAM column, pH 7.4; for k IAM: Table S5, retention factor, IAM column, phosphate buffer pH 7.4/acetonitrile 80:20
[11] = cited from earlier work
[12] = test system: plasma protein; settings: ref DrugBank [7], cited from earlier work
[13] = Table S5, retention factor, HSA column, pH 7.4, 25 degrees Celsius
[14] = Table S1, milk/plasma drug concentration ratio, in vivo
[15] = Table S1, plasma protein binding given as fraction
[16] = human, immobilized hsa column, pH 7.4

Row | Structure (SMILES) | BB vivo ([1]; Table S1) | CNS+/- ([2]; Table S1, coded 1/0) | CRP (Rf, control RP plate) [3] | NP (Rf, BSA-impregnated NP plate) [4] | CNP (Rf, control NP plate) [5] | k HSA [6, 13] | RP (Rf, BSA-impregnated RP plate) [7] | M/P code [8] | chromatographic logD [9] | log k IAM [10] | k IAM [10] | M/P [11, 14] | PB [12, 15] | also measured
1 | CN1CCN2c3ncccc3Cc3ccccc3C2C1 (stereo not shown) [mirtazapine] | 0.530 | 1 | 0.58 | 0.39 | 0.39 | 2.96 | 0.58 | 3 (3 range 0.81–1.20—possibly over the safety limit) | 0.47 | 0.77 | 5.83 | 1.1 |  | 
2 | CN/C(=N/CCSCc1nc[nH]c1C)NC#N [cimetidine] | -1.420 | 0 | 0.88 | 0.67 | 0.64 | 0.67 | 0.87 | 4 (4 is M/P >1.20—dangerous) | -0.17 | -0.58 | 0.26 | 1.7 | 0.17 | 
3 | CC(=O)Nc1ccc(O)cc1 [paracetamol] | -0.463 | 1 | 0.92 | 0.94 | 0.93 | 0.28 | 0.92 | 3 (3 range 0.81–1.20—possibly over the safety limit) |  | -0.49 | 0.32 | 0.84 | 0.25 | log k HSA ([6]; Table S5, HSA, pH 7.4): -0.55
4 | CN(C)CCCN1c2ccccc2Sc2ccccc21 [promazine] | 0.880 | 1 | 0.51 | 0.37 | 0.39 | 8.9 | 0.51 |  |  | -1.02 | 0.10 |  | 0.94 | log k HSA [6, 16]: 0.95
5 | CN1CCN2c3ccccc3Cc3ccccc3C2C1 (stereo not shown) [mianserin] | 0.990 | 1 | 0.55 | 0.55 | 0.54 | 6.39 | 0.55 | 4 (4 is M/P >1.20—dangerous) | 0.81 | 1.34 | 21.72 | 2.2 | 0.9 | 
6 | CN(C)CCC=C1c2ccccc2CCc2ccccc21 [amitriptyline] |  |  |  |  |  |  |  |  | 0.77 |  |  |  |  | PB ([12]; Table S6, external group (n = 38), given as fraction): 0.95; BB vivo ([1]; Table S6, external group): 0.89; CNS+/- ([2]; Table S6, external group, coded 1/0): 1; CRP (Rf value from the non-impregnated RP plate, control) ([3]; Table S8, external group): 0.67; NP (Rf value from the NP plate impregnated with 2 mg/mL BSA solution) ([4]; Table S8, external group): 0.31; CNP (Rf value from the non-impregnated NP plate, control) ([5]; Table S8, external group): 0.32; kHSA ([6]; Table S9, external group): 5.87; RP (Rf value from the RP plate impregnated with 2 mg/mL BSA solution) ([7]; Table S8, external group): 0.63; log kIAM ([10]; Table S9, external group): 0.19; M/P ([11]; Table S6, external group (n = 38)): 0.92
7 | CN(C)CCc1c[nH]c2ccc(Cn3cncn3)cc12 [rizatriptan] | 0.780 | 1 |  | 0.20 | 0.20 | 2.06 |  |  |  | 0.40 | 2.53 |  |  | log k HSA [6, 16]: 0.31
8 | CN1C(=O)CC(=O)N(c2ccccc2)c2cc(Cl)ccc21 [clobazam] | 0.350 | 1 | 0.79 | 0.95 | 0.95 |  | 0.80 | 1 (Code 1 corresponds to drugs with an M/P value <0.40—completely safe) | 0 | 0.41 | 2.58 | 0.25 | 0.85 | k HSA ([6]; pH 7.4): 1.01
9 | CN(C)CCCN1c2ccccc2Sc2ccc(Cl)cc21 [chlorpromazine] | 0.950 |  | 0.49 | 0.43 | 0.43 | 13.33 | 0.50 |  | 1.12 | 1.77 | 58.85 |  | 0.9 | 
10 | Clc1cccc(Cl)c1N=C1NCCN1 [clonidine] | 0.150 | 1 | 0.73 | 0.50 | 0.49 | 1.35 | 0.68 | 4 (4 is M/P >1.20—dangerous) | 0.13 | 0.45 | 2.83 | 2 | 0.3 | 
11 | O=C1NC(=O)C(c2ccccc2)(c2ccccc2)N1 [phenytoin] | -0.096 | 1 | 0.87 | 0.97 | 0.97 | 1.63 | 0.86 | 1 (Code 1 corresponds to drugs with an M/P value <0.40—completely safe) | 0.21 | 0.25 | 1.78 | 0.29 | 0.9 | 
12 | CCCN1C[C@H](CSC)C[C@@H]2c3cccc4[nH]cc(c34)C[C@H]21 [pergolide] | 0.300 | 1 | 0.55 | 0.47 | 0.48 | 0.07 | 0.53 |  |  |  |  |  | 0.9 | log k HSA [6, 16]: -1.15
13 | NC(=O)N1c2ccccc2C=Cc2ccccc21 [carbamazepine] | -0.070 | 1 | 0.83 | 0.95 | 0.95 | 1.09 | 0.84 | 2 (2 corresponds to the range of 0.40–0.80—at the safety limit) |  | 0.18 | 1.50 | 0.558 | 0.76 | log k HSA ([6]; Table S5, HSA, pH 7.4): 0.04
14 | Nc1nnc(-c2cccc(Cl)c2Cl)c(N)n1 [lamotrigine] | 0.480 |  | 0.87 |  | 0.89 |  |  |  |  | -0.15 | 0.71 |  | 0.55 | 
15 | Cc1ncc2n1-c1ccc(Cl)cc1C(c1ccccc1F)=NC2 [midazolam] | 0.398 | 1 | 0.66 | 0.83 | 0.82 |  | 0.66 | 2 (2 corresponds to the range of 0.40–0.80—at the safety limit) | 0.51 | 0.76 | 5.69 | 0.785 | 0.97 | k HSA ([6]; pH 7.4): 3.22
16 | CC(C)C[C@H]1C(=O)N2CCC[C@H]2[C@]2(O)O[C@](NC(=O)[C@@H]3C=C4c5cccc6[nH]c(Br)c(c56)C[C@H]4N(C)C3)(C(C)C)C(=O)N12 [bromocriptine] | -1.100 |  | 0.69 | 0.96 | 0.95 |  | 0.70 |  | 0.91 | 1.10 | 12.69 |  | 0.93 | k HSA ([6]; pH 7.4): 8.09
17 | OCCOCCN1CCN(C(c2ccccc2)c2ccc(Cl)cc2)CC1 (stereo not shown) [hydroxyzine] | 0.285 | 1 |  | 0.55 | 0.55 | 3.69 |  |  | 0.57 | 1.14 | 13.82 |  | 0.93 | 
18 | CSc1ccc2c(c1)N(CCC1CCCCN1C)c1ccccc1S2 (stereo not shown) [thioridazine] | 0.285 |  | 0.40 | 0.43 | 0.47 | 18.57 | 0.40 |  |  | 1.68 | 47.61 |  |  | log k HSA [6, 16]: 1.27
